Source: patent US20080194585A1, “Fungicidal Pyrazine Derivatives” (priority 2005, published 2008)
Marks after values point to notes of the source that are not given here.

Key:
[1] = tested on: Septoria nodorum; test: Test H: wheat glum blotch, preventive spray on wheat seedlings
Protocol: (the causal agent of wheat glum blotch) and incubated in a saturated atmosphere at 20° C. for 48 h, and then moved to a growth chamber at 22° C. for 5 days, after which disease ratings were made.

[2] = tested on: Botrytis cinerea; test: Test E: tomato botrytis, preventive spray on tomato seedlings
[3] = tested on: Erysiphe graminis f. sp. tritici; test: Test L: wheat powdery mildew, preventive spray on wheat seedlings
[4] = tested on: Plasmopara viticola; test: Test D: grape downy mildew, spray after inoculation of grape seedlings; assay type: in vivo
Source text: Upon removal, disease ratings were made. […] A dash (-) indicates no test results.

[5] = tested on: Puccinia recondita f. sp. tritici; test: Test K: wheat leaf rust, preventive spray on wheat seedlings
[6] = tested on: Phytophthora infestans; test: whole plant or invertebrate; assay type: in vivo
[7] = tested on: Pythium aphanidermatum; test: Test A: bluegrass pythium blight, preventive spray on bluegrass seedlings; details: 100 = 100% disease control
[8] = tested on: Colletotrichum orbiculare; test: Test B: cucumber Colletotrichum anthracnose, preventive spray on cucumber seedlings; details: 100 = 100% disease control
[9] = tested on: Septoria tritici; test: Test J: wheat leaf blotch, preventive spray on wheat seedlings; assay type: in vivo; details: 40 ppm (marked *); 100 = 100% disease control, 0 = no control
Source text: A dash (-) indicates no test results.

[10] = tested on: Rhizoctonia oryzae; test: Test G: turf brown patch, preventive spray on creeping bent grass seedlings; details: 100 = 100% disease control, 0 = no control
Protocol: (the causal agent of turf brown patch) and incubated in a saturated atmosphere at 27° C. for 24 h, and then moved to a growth chamber at 27° C. for 5 days, after which disease ratings were made.

[11] = tested on: fusarium graminearium; test: Test I: wheat head scab, preventive spray on wheat seedlings; details: 200 ppm; 100 = 100% disease control, 0 = no control relative to controls
Protocol: (the causal agent of wheat head scab) and incubated in a saturated atmosphere at 20° C. for 72 h, and then moved to a growth chamber at 22° C. for 5 days, after which disease ratings were made.

[12] = 40 ppm (marked *), 100 = 100% disease control, 0 = no control
[13] = 40 ppm (marked *), 0 = no control
[14] = 200 ppm, 100 = 100% disease control, 0 = no control relative to controls
[15] = 200 ppm, 0 = no control relative to controls

CC(C)Cn1c(-c2ccc(C(F)(F)F)cc2)c(Cl)nc(-n2cccn2)c1=O [compound 36]
Test H disease control rating ([1]; 200 ppm): 0% | Test E disease control rating ([2]; 200 ppm): 0% | Test L disease control rating ([3]; 200 ppm): 0% | Test D disease control rating ([4]; 200 ppm): 0% | Test K disease control rating ([5]; 200 ppm): 0% | Test F disease control rating ([6]; 200 ppm): 0%

COc1ccc(-c2c(Cl)nc(-n3cccn3)c(=O)n2CC(C)C)cc1 [compound 37]
Test H disease control rating ([1]; 200 ppm): 100% | Test E disease control rating ([2]; 200 ppm): 100% | Test L disease control rating ([3]; 200 ppm): 0% | Test D disease control rating ([4]; 200 ppm): 0% | Test K disease control rating ([5]; 200 ppm): 89% | Test F disease control rating ([6]; 200 ppm): 0%

CC(C)Cn1c(-c2ccc(OC(F)(F)F)cc2)c(Cl)nc(-n2cccn2)c1=O [compound 38]
Test H disease control rating ([1]; 200 ppm): 0% | Test E disease control rating ([2]; 200 ppm): 0% | Test L disease control rating ([3]; 200 ppm): 0% | Test D disease control rating ([4]; 200 ppm): 0% | Test K disease control rating ([5]; 200 ppm): 0% | Test F disease control rating ([6]; 200 ppm): 0%

O=c1c(-n2cccn2)nc(Cl)c(-c2c(F)cccc2F)n1Cc1ccccc1F [compound 336]
Test H disease control rating [1, 12]: 99* % | Test E disease control rating [2, 12]: 99* % | Test L disease control rating [3, 12]: 98* % | Test D disease control rating [4, 12]: 0* % | Test A disease control rating [7, 13]: 0* % | Test B disease control rating [8, 13]: 0* % | Test K disease control rating [5, 12]: 100* % | Test F disease control rating [6, 12]: 0* % | Test J disease control rating [9]: 100* % | Test G disease control rating ([10]; 40 ppm (marked *)): 41* %

Cc1ccn(-c2nc(Cl)c(-c3c(F)cc(F)cc3F)n(-c3ccccc3F)c2=O)n1 [compound 355]
Test H disease control rating [1, 12]: 100* % | Test E disease control rating [2, 12]: 99* % | Test L disease control rating [3, 12]: 57* % | Test D disease control rating [4, 12]: 0* % | Test A disease control rating [7, 13]: 0* % | Test B disease control rating [8, 13]: 99* % | Test K disease control rating [5, 12]: 99* % | Test F disease control rating [6, 12]: 0* % | Test J disease control rating [9]: 100* % | Test G disease control rating ([10]; 40 ppm (marked *)): 66* %

Cc1ccn(-c2nc(Cl)c(-c3c(F)cc(F)cc3F)n(-c3cccc(F)c3)c2=O)n1 [compound 356]
Test H disease control rating [1, 12]: 100* % | Test E disease control rating [2, 12]: 100* % | Test L disease control rating [3, 12]: 100* % | Test D disease control rating [4, 12]: 0* % | Test A disease control rating [7, 13]: 0* % | Test B disease control rating [8, 13]: 99* % | Test K disease control rating [5, 12]: 100* % | Test F disease control rating [6, 12]: 0* % | Test J disease control rating [9]: 100* % | Test G disease control rating ([10]; 40 ppm (marked *)): 93* %

Cc1ccn(-c2nc(Cl)c(-c3c(F)ccc(F)c3F)n(-c3ccccc3)c2=O)n1 [compound 358]
Test H disease control rating [1, 12]: 100* % | Test E disease control rating [2, 12]: 99* % | Test L disease control rating [3, 12]: 91* % | Test D disease control rating [4, 12]: 0* % | Test A disease control rating [7, 13]: 0* % | Test B disease control rating [8, 13]: 0* % | Test K disease control rating [5, 12]: 100* % | Test J disease control rating [9]: 100* % | Test G disease control rating ([10]; 40 ppm (marked *)): 92* %

O=c1c(-n2cccn2)nc(Cl)c(-c2c(F)cc(F)cc2F)n1-c1ccc(F)c(F)c1 [compound 365]
Test H disease control rating [1, 12]: 100* % | Test E disease control rating [2, 12]: 98* % | Test L disease control rating [3, 12]: 96* % | Test D disease control rating [4, 12]: 16* % | Test A disease control rating [7, 13]: 0* % | Test B disease control rating [8, 13]: 99* % | Test K disease control rating [5, 12]: 100* % | Test F disease control rating [6, 12]: 0* % | Test J disease control rating [9]: 100* % | Test G disease control rating ([10]; 40 ppm (marked *)): 99* %

Cc1ccn(-c2nc(Cl)c(-c3c(F)cc(F)cc3F)n(-c3ccc(F)c(F)c3)c2=O)n1 [compound 366]
Test H disease control rating [1, 12]: 100* % | Test E disease control rating [2, 12]: 99* % | Test L disease control rating [3, 12]: 93* % | Test D disease control rating [4, 12]: 0* % | Test A disease control rating [7, 13]: 0* % | Test B disease control rating [8, 13]: 99* % | Test K disease control rating [5, 12]: 100* % | Test F disease control rating [6, 12]: 0* % | Test J disease control rating [9]: 96* % | Test G disease control rating ([10]; 40 ppm (marked *)): 89* %

O=c1c(-n2cccn2)nc(Cl)c(-c2c(F)cc(F)cc2F)n1-c1cc(F)cc(F)c1 [compound 367]
Test H disease control rating [1, 12]: 100* % | Test E disease control rating [2, 12]: 99* % | Test L disease control rating [3, 12]: 99* % | Test D disease control rating [4, 12]: 0* % | Test A disease control rating [7, 13]: 0* % | Test B disease control rating [8, 13]: 100* % | Test K disease control rating [5, 12]: 100* % | Test F disease control rating [6, 12]: 0* % | Test J disease control rating [9]: 99* % | Test G disease control rating ([10]; 40 ppm (marked *)): 99* %

Cc1ccn(-c2nc(Cl)c(-c3c(F)cc(F)cc3F)n(-c3cc(F)cc(F)c3)c2=O)n1 [compound 368]
Test H disease control rating [1, 12]: 100* % | Test E disease control rating [2, 12]: 99* % | Test L disease control rating [3, 12]: 99* % | Test D disease control rating [4, 12]: 0* % | Test A disease control rating [7, 13]: 0* % | Test B disease control rating [8, 13]: 99* % | Test K disease control rating [5, 12]: 100* % | Test F disease control rating [6, 12]: 0* % | Test J disease control rating [9]: 100* % | Test G disease control rating ([10]; 40 ppm (marked *)): 99* %

O=c1c(-n2cccn2)nc(Cl)c(-c2c(F)cc(F)cc2F)n1-c1cccc(F)c1F [compound 369]
Test H disease control rating [1, 12]: 100* % | Test E disease control rating [2, 12]: 99* % | Test L disease control rating [3, 12]: 98* % | Test D disease control rating [4, 12]: 0* % | Test A disease control rating [7, 13]: 0* % | Test B disease control rating [8, 13]: 100* % | Test K disease control rating [5, 12]: 100* % | Test F disease control rating [6, 12]: 0* % | Test J disease control rating [9]: 100* % | Test G disease control rating ([10]; 40 ppm (marked *)): 99* %

Cc1ccn(-c2nc(Cl)c(-c3c(F)cc(F)cc3F)n(-c3cccc(F)c3F)c2=O)n1 [compound 370]
Test H disease control rating [1, 12]: 100* % | Test E disease control rating [2, 12]: 99* % | Test L disease control rating [3, 12]: 96* % | Test D disease control rating [4, 12]: 0* % | Test A disease control rating [7, 13]: 0* % | Test B disease control rating [8, 13]: 100* % | Test K disease control rating [5, 12]: 100* % | Test F disease control rating [6, 12]: 0* % | Test J disease control rating [9]: 100* % | Test G disease control rating ([10]; 40 ppm (marked *)): 92* %

O=c1c(-n2cccn2)nc(Cl)c(-c2c(F)cc(F)cc2F)n1-c1ccc(Cl)cc1 [compound 371]
Test H disease control rating [1, 12]: 100* % | Test E disease control rating [2, 12]: 99* % | Test L disease control rating [3, 12]: 98* % | Test D disease control rating [4, 12]: 0* % | Test A disease control rating [7, 13]: 0* % | Test B disease control rating [8, 13]: 99* % | Test K disease control rating [5, 12]: 100* % | Test F disease control rating [6, 12]: 0* % | Test J disease control rating [9]: 100* % | Test G disease control rating ([10]; 40 ppm (marked *)): 99* %

Cc1ccn(-c2nc(Cl)c(-c3c(F)cc(F)cc3F)n(-c3ccc(Cl)cc3)c2=O)n1 [compound 372]
Test H disease control rating [1, 12]: 100* % | Test E disease control rating [2, 12]: 99* % | Test L disease control rating ([3]; 200 ppm, 100 = 100% disease control, 0 = no control): 98% | Test D disease control rating [4, 12]: 0* % | Test A disease control rating [7, 13]: 0* % | Test B disease control rating [8, 13]: 100* % | Test K disease control rating [5, 12]: 100* % | Test F disease control rating [6, 12]: 0* % | Test J disease control rating [9]: 100* % | Test G disease control rating ([10]; 200 ppm): 82%

C#CCNC(=O)c1nc(Cl)c(-c2c(F)cc(F)cc2F)n(CC(C)CC)c1=O (centres unmarked) [compound 416]
Test H disease control rating [1, 14]: 100% | Test E disease control rating [2, 14]: 99% | Test L disease control rating [3, 14]: 99% | Test B disease control rating [8, 15]: 99% | Test I disease control rating [11]: 0% | Test K disease control rating [5, 14]: 100%

NC(=O)c1nc(Cl)c(-c2c(F)ccc(F)c2F)n(-c2ccccc2)c1=O [compound 419]
Test H disease control rating [1, 12]: 94* % | Test E disease control rating [2, 12]: 97* % | Test L disease control rating [3, 12]: 0* % | Test D disease control rating [4, 14]: 32% | Test A disease control rating [7, 15]: 100% | Test I disease control rating [11]: 73% | Test K disease control rating [5, 12]: 100* % | Test F disease control rating [6, 14]: 95% | Test G disease control rating ([10]; 40 ppm (marked *)): 0* %

NC(=O)c1nc(Cl)c(-c2c(F)cc(F)cc2F)n(-c2ccccc2)c1=O [compound 420]
Test H disease control rating [1, 12]: 96* % | Test E disease control rating [2, 12]: 94* % | Test L disease control rating [3, 12]: 41* % | Test D disease control rating [4, 14]: 31% | Test A disease control rating [7, 15]: 98% | Test I disease control rating [11]: 60% | Test K disease control rating [5, 12]: 100* % | Test F disease control rating [6, 14]: 100% | Test G disease control rating ([10]; 40 ppm (marked *)): 0* %
